“Also recorded” adds a separate entry of the source.
How the values were obtained:
AIM-expressing isolates = experiment: Clinical isolate screening with meropenem; type: cell-based, Enterobacteriaceae, Acinetobacter spp. and Pseudomonas spp.; conditions: meropenem 2 μg/ml, AM-A 8 μg/ml
Experimental: (§1) Various concentrations of AM-A were chosen in combination with 2 mg/L of meropenem which is the EUCAST breakpoint for resistance^28. Synergistic properties of the two compounds were examined in a micro-titre tray using BHI as the growth medium (Oxford Science Park, England) and an inoculum of 0.5 MacFarland. All plates contained the control strains Escherichia coli ATCC 25922 and Pseudomonas aeruginosa ATCC 27853. Overall, 226 non-clonal clinical isolates (Enterobacteriaceae, P. aeruginosa and Acinetobacter spp.) were challenged containing one of the following MBLs: SPM-1 (n=17), AIM-1 (n=8), NDM-1 (n=67), VIM-type (n=114) or IMP-type (n=20). […] Plates were incubated at 37° C. and read after 18 hrs.

IMP-expressing isolates = experiment: Clinical isolate screening with meropenem; type: cell-based, Enterobacteriaceae, Acinetobacter spp. and Pseudomonas spp.; conditions: meropenem 2 μg/ml, AM-A 8 μg/ml
Experimental: as §1

[1] = tested on: SPM-1-expressing isolates; experiment: Clinical isolate screening with meropenem; type: cell-based, Enterobacteriaceae, Acinetobacter spp. and Pseudomonas spp.; conditions: meropenem 2 μg/ml, AM-A 8 μg/ml
Experimental: as §1

NDM positives isolates = experiment: Clinical isolate screening with meropenem; type: cell-based, Enterobacteriaceae, Acinetobacter spp. and Pseudomonas spp.; conditions: AM-A 8 μg/ml, meropenem 2 μg/ml
Experimental: as §1

VIM positive isolates = experiment: Clinical isolate screening with meropenem; type: cell-based, Enterobacteriaceae, Acinetobacter spp. and Pseudomonas spp.; conditions: AM-A 8 μg/ml, meropenem 2 μg/ml
Experimental: as §1

K. pneumoniae N11-2218 = experiment: Mouse lethal systemic infection, survival; type: in vivo, CD1 mice
From the text: All animals were housed in specific pathogen-free units in the Central Animal Facility at McMaster University. All experimental protocols were approved by, and performed in accordance with the McMaster Animal Research Ethics Board. Female CD1 mice were purchased from Charles River.
Mice were infected intraperitoneally (ip) with a dose of 2×10^6 colony forming units (cfu) of Klebsiella pneumoniae N11-2218 for all organ bacterial load experiments, or with a dose of 5×10^7cfu for all survival experiments. For all organ bacterial load experiments, mice were euthanized 48 hours post infection, and spleen and liver were harvested. Organs were placed into 1 mL sterile PBS on ice, and then homogenized (Mixer Mill 400; Retsch). Organ homogenates were then serially diluted in PBS, and plated on Brilliant Green agar (Oxoid) for cfu enumeration. For survival curves, mice were monitored for endpoint. For all experiments, mice were treated 30 minutes post infection with a specified subcutaneous dose of either PBS, meropenem, AM-A inhibitor, or a combination of both antibiotic and inhibitor.

NDM-1 = NDM-1 (Klebsiella pneumoniae, UniProt C7C422); experiment: ICP mass spectrometry of Zn in enzyme; conditions: NDM-1 inactivated by AM-A, ICP-MS
Sequence of NDM-1 (C7C422 27-270 limits assumed): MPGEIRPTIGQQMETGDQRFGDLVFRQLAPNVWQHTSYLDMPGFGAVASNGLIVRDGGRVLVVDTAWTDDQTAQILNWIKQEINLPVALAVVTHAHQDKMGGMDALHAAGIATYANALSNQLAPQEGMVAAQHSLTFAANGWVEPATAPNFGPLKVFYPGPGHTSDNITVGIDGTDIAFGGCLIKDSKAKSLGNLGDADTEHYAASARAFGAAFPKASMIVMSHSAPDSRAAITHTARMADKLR
Experimental: Inductively coupled mass spectrometry (ICP-MS) was used to analyze the ability of AM-A to chelate Zn^66 from purified NDM-1 (27-270). The NDM-1 protein was purified as previously described^26 and freshly exchanged using a 15 kDa cutoff dialysis tubing into ICP-MS buffer (20 mM HEPES, 100 mM NaCl, pH 7.5) overnight at 4° C. in order to remove any contaminating metals. The protein was concentrated to ˜5 mg/mL and varying concentrations of AM-A were incubated with the protein samples in triplicate for 3 hours at room temperature with gentle shaking. The protein-AM-A samples were again dialyzed overnight at 4° C. into ICP-MS buffer using 12-14 kDa cutoff D-tube dialyzer mini (EMD biosciences) microdialysis cassettes. The final protein was diluted to 1 mg/mL in ICP-MS buffer, followed by a 1/40 dilution in an internal standard (10 ug/L Sc45, 1% nitric acid, Inorganic Ventures). Prior to sample analysis, the ICP MS was calibrated using a standard solution containing the metal isotopes of interest (Inorganic Ventures). […] Quantitative analysis was performed in triplicate for each sample with 60 sweeps per reading using the peak-hopping mode with a 50 ms/AMU dwell time for each element. […] Isotope abundance was determined by integrating peak areas using the NexION software program, and the data was represented graphically using Microsoft Excel.

Pseudomonas spp. = experiment: Clinical isolate screening with meropenem; type: cell-based, Pseudomonas aeruginosa
Experimental: as §1

## N[C@H](CN[C@H](CN[C@@H](CC(=O)O)C(=O)O)C(=O)O)C(=O)O [AM-A, aspergillomarasmine A]
AIM-expressing isolates
  potentiation of meropenem / susceptibility to combination: very little potentiation; also recorded: remained resistant
IMP-expressing isolates
  potentiation of meropenem / susceptibility to combination: very little potentiation; also recorded: remained resistant
[1]
  potentiation of meropenem / susceptibility to combination: very little potentiation; also recorded: remained resistant
NDM positives isolates
  isolates with meropenem sensitivity restored: 88%
  susceptibility to meropenem/AM-A combination: highly susceptible
VIM positive isolates
  isolates with meropenem sensitivity restored: 90%
  susceptibility to meropenem/AM-A combination: highly susceptible
K. pneumoniae N11-2218; monotherapy (alone)
  prevention of lethal infection: unable to prevent lethal infection
K. pneumoniae N11-2218; single dose of combination meropenem 10 mg/kg + AM-A 30 mg/kg, 5 days following infection
  survival: > 95%
NDM-1
  loss of Zn from NDM-1: ~1.8 Zn equivalents
Pseudomonas spp.
  activity in Pseudomonas spp. (potentiation of meropenem): active

— US10016383B2, “Inhibitors of metallo-β-lactamase-enzymes” (McMaster University, priority 2013, dated 2018)
